Measured values taken from US20090325964A1, “Piperazine Metabotropic Glutamate Receptor 5 (MGLUR5) Negative Allosteric Modulators For Anxiety/Depression” (Wyeth, priority 2008, published 2009).

Assays:
rat mGluR5 receptor = target: T1, rat mGluR5 receptor (Rattus norvegicus, UniProt P31424); assay: [3H]-MPEP displacement binding assay, HEK-293 cell membranes expressing rat mGluR5; conditions: [3H]-MPEP displacement, rat mGluR5; read-out: Median Ki
T1 construct: expressed in transfected cells; host or cells: HEK-293
Outline: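 Membranes from HEK-293 cells expressing rat mGluR5 (12-25 μg protein), incubated 60 min at room temperature with 4 nM [3H]-MPEP in 50 mM Tris pH 7.5, then filtered. Nonspecific binding defined with 10 μM MPEP.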

mGluR5 = mGluR5 (Rattus norvegicus, UniProt P31424); assay: IC50 column under 'Biological Activity' (assay not identified in the shown text; not the binding Ki)
Sequence of mGluR5 (P31424 21-1203): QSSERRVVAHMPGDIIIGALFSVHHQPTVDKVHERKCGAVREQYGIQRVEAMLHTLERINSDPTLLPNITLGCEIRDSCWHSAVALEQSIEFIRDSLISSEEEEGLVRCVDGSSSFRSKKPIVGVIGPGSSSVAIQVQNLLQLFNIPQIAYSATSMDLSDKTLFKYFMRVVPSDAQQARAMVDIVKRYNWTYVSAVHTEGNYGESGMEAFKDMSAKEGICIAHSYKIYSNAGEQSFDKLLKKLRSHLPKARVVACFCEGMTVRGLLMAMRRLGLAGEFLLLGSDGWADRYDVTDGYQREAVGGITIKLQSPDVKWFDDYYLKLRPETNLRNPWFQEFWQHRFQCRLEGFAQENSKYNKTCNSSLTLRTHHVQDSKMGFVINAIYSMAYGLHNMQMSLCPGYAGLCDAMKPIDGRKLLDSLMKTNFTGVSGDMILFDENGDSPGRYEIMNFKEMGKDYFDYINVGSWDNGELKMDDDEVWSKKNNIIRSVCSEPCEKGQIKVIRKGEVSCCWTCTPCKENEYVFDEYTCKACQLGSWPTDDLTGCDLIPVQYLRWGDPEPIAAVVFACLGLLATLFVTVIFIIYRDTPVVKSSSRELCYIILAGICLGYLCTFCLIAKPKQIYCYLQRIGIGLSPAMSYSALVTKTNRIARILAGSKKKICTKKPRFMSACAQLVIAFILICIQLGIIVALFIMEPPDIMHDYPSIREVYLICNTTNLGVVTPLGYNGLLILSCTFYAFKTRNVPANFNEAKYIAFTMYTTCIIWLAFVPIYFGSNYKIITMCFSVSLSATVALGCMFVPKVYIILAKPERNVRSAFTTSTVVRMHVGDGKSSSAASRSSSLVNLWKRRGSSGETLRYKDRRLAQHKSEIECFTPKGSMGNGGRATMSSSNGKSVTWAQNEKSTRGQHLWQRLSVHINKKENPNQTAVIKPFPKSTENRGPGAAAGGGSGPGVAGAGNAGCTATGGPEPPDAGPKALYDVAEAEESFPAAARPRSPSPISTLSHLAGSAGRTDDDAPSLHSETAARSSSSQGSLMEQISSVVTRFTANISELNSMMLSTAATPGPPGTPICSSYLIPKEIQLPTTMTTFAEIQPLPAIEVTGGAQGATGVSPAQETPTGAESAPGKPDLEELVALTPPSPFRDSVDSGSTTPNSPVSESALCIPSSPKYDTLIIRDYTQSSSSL

T1 sequence (P31424 21-1203): as above

Ki (rat mGluR5 receptor) [µM]	IC50 (mGluR5) [µM]	SMILES
0.015	0.081	COc1cccc(N2CCN(C(=O)c3ccc(OC)c(C#Cc4ccccn4)c3)CC2)c1 [Compound 241, 1-(3-methoxyphenyl)-4-[4-methoxy-3-(pyridin-2-ylethynyl)benzoyl]piperazine]
0.018	0.019	CCOc1ccc(C(=O)N2CCN(c3ccccn3)CC2)cc1C#Cc1ccccn1 [Compound 318, 1-[4-ethoxy-3-(pyridin-2-ylethynyl)benzoyl]-4-pyridin-2-ylpiperazine]
0.083	0.204	COc1ccc(N2CCN(C(=O)c3ccc(OC)c(C#Cc4ccccn4)c3)CC2)nn1 [Compound 301, 3-methoxy-6-{4[4-methoxy-3-(pyridin-2-ylethynyl)benzoyl]piperazin-1-yl}pyridazine]
0.004	0.148	COc1ccc(C(=O)N2CCN(c3cccc(Cl)c3)CC2)cc1C#Cc1ccccn1 [Compound 189, 1-(3-chlorophenyl)-4-[4-methoxy-3-(pyridin-2-ylethynyl)benzoyl]piperazine]
0.005	0.078	O=C(c1ccc(OCC2CC2)c(C#Cc2ccccn2)c1)N1CCN(c2noc3ccccc23)CC1 [Compound 324, 3-(4-{[4-(cyclopropylmethoxy)-3-(pyridin-2-ylethynyl)phenyl]carbonyl}piperazin-1-yl)-1,2-benzisoxazole]
0.076	> 1	COc1ccc(C(=O)N2C[C@H]3C[C@H]2CN3c2ccc(Cl)cc2)cc1C#Cc1ccccn1 [Compound 199, (1R,4S)-2-(4-chlorophenyl)-5-[4-methoxy-3-(pyridin-2-ylethynyl)benzoyl]-2,5-diazabicyclo[2.2.1]heptane]
0.083	> 1	COc1ccc(C(=O)N2CCN(C(=O)C3CC3)CC2)cc1C#Cc1ccccn1 [Compound 248, 1-(cyclopropylcarbonyl)-4-[4-methoxy-3-(pyridin-2-ylethynyl)benzoyl]piperazine]
0.043	0.317	COc1ccc(C(=O)N2CCN(Cc3ccc(Cl)cc3Cl)CC2)cc1C#Cc1ccccn1 [Compound 280, 1-(2,4-dichlorobenzyl)-4-[4-methoxy-3-(pyridin-2-ylethynyl)benzoyl]piperazine]
0.009	0.129	COc1ccc(C(=O)N2CCN(c3cccc(Cl)n3)CC2)cc1C#Cc1ccccn1 [Compound 255, 1-(6-chloropyridin-2-yl)-4-[4-methoxy-3-(pyridin-2-ylethynyl)benzoyl]piperazine]
0.021	0.141	COc1ccc(C(=O)N2CCN(c3ncccc3C)CC2)cc1C#Cc1ccccn1 [Compound 208, 1-[4-methoxy-3-(pyridin-2-ylethynyl)benzoyl]-4-(3-methylpyridin-2-yl)piperazine]
0.023	0.062	O=C(c1ccc(F)c(C#Cc2ccccn2)c1)N1CCN(c2ccccn2)CC1 [Compound 313, 1-[4-fluoro-3-(pyridin-2-ylethynyl)benzoyl]-4-pyridin-2-ylpiperazine]
0.034	0.046	COc1ccc(C(=O)N2CCN(c3nccnc3C#N)CC2)cc1C#Cc1ccccn1 [Compound 193, 3-{4-[4-methoxy-3-(pyridin-2-ylethynyl)benzoyl]piperazin-1-yl}pyrazine-2-carbonitrile]
0.025	0.119	COc1cnc(N2CCN(C(=O)c3ccc(OC)c(C#Cc4ccccn4)c3)CC2)nc1 [Compound 299, 5-methoxy-2-{4-[4-methoxy-3-(pyridin-2-ylethynyl)benzoyl]piperazin-1-yl}pyrimidine]
0.054	> 1	COc1ccc(C(=O)N2CCN(C(=O)c3ccc(OC)c(C#Cc4ccccn4)c3)CC2)cc1 [Compound 265, 1-(4-methoxybenzoyl)-4-[4-methoxy-3-(pyridin-2-ylethynyl)benzoyl]piperazine]
0.024	0.096	COc1ccc(C(=O)N2CCN(c3ccccc3)CC2C)cc1C#Cc1ccccn1 (stereo not drawn) [Compound 250, 1-[4-methoxy-3-(pyridin-2-ylethynyl)benzoyl]-2-methyl-4-phenylpiperazine]
0.008	0.107	COc1ccnc(N2CCN(C(=O)c3ccc(C)c(C#Cc4ccccn4)c3)CC2)n1 [Compound 308, 4-Methoxy-2-{4-[4-methyl-3-(pyridin-2-ylethynyl)benzoyl]piperazin-1-yl}pyrimidine]
0.176	0.273	O=C(c1ccc(OC(F)(F)F)c(C#Cc2ccccn2)c1)N1CCN(c2cnccn2)CC1 [Compound 335, 2-{4-[3-(pyridin-2-ylethynyl)-4-(trifluoromethoxy)benzoyl]piperazin-1-yl}pyrazine]
0.131	> 1	COc1ccc(C(=O)N2CCCN(c3ccccn3)CC2)cc1C#Cc1ccccn1 [Compound 205, 1-[4-methoxy-3-(pyridin-2-ylethynyl)benzoyl]-4-pyridin-2-yl-1,4-diazepane]

Ki (rat mGluR5 receptor) [µM]	IC50 (mGluR5) [µM]	SMILES
0.078	0.117	COc1ccc(C(=O)N2CCN(c3ncccc3C(F)(F)F)CC2)cc1C#Cc1ccccn1 [Compound 184, 1-[4-methoxy-3-(pyridin-2-ylethynyl)benzoyl]-4-[3-(trifluoromethyl)pyridin-2-yl]piperazine]
0.005	0.834	COc1ccc(C(=O)N2CCN(c3cccc(C(F)(F)F)c3)CC2)cc1C#Cc1ccccn1 [Compound 187, 1-[4-methoxy-3-(pyridin-2-ylethynyl)benzoyl]-4-[3-(trifluoromethyl)phenyl]piperazine]
0.022	> 1	COc1ccc(C(=O)N2CCN(c3ccnc(SC)n3)CC2)cc1C#Cc1ccccn1 [Compound 296, 4-{4-[4-methoxy-3-(pyridin-2-ylethynyl)benzoyl]piperazin-1-yl}-2-(methylthio)pyrimidine]
0.033	> 1	COc1ccc(C(=O)N2CCN(Cc3ccccc3F)CC2)cc1C#Cc1ccccn1 [Compound 266, 1-(2-fluorobenzyl)-4-[4-methoxy-3-(pyridin-2-ylethynyl)benzoyl]piperazine]
0.072	0.029	COc1ccc(C(=O)N2CCN(c3ccc(Cl)cc3)C(=O)C2)cc1C#Cc1ccccn1 [Compound 326, 1-(4-Chlorophenyl)-4-{[4-methoxy-3-(pyridin-2-ylethynyl)phenyl]carbonyl}piperazin-2-one]
0.021	0.024	COc1ccnc(N2CCN(C(=O)c3ccc(OC)c(C#Cc4ccccn4)c3)CC2)n1 [Compound 200, 4-methoxy-2-{4-[4-methoxy-3-(pyridin-2-ylethynyl)benzoyl]piperazin-1-yl}pyrimidine]
0.021	0.119	COc1ccc(C(=O)N2CCN(c3ccc(C(C)=O)cc3)CC2)cc1C#Cc1ccccn1 [Compound 237, 1-(4-{4-[4-methoxy-3-(pyridin-2-ylethynyl)benzoyl]piperazin-1-yl}phenyl)ethanone]
0.031	> 1	COc1ccc(C(=O)N2CCN(c3ccc(Cl)nn3)CC2)cc1C#Cc1ccccn1 [Compound 303, 3-chloro-6-{4-[4-methoxy-3-(pyridin-2-ylethynyl)benzoyl]piperazin-1-yl}pyridazine]
0.021	0.18	COc1ccc(C(=O)N2CCN(S(=O)(=O)c3ccc(C)cc3)CC2)cc1C#Cc1ccccn1 [Compound 253, 1-[4-methoxy-3-(pyridin-2-ylethynyl)benzoyl]-4-[(4-methylphenyl)sulfonyl]piperazine]
0.034	0.193	Cc1ccc(C(=O)N2CCN(c3ncccn3)CC2)cc1C#Cc1ccccn1 [Compound 309, 2-{4-[4-methyl-3-(pyridin-2-ylethynyl)benzoyl]piperazin-1-yl}pyrimidine]
0.041	0.066	COc1ccc(C(=O)N2CCN(c3ccc(C(F)(F)F)cn3)CC2)cc1C#Cc1ccccn1 [Compound 183, 1-[4-methoxy-3-(pyridin-2-ylethynyl)benzoyl]-4-[5-(trifluoromethyl)pyridin-2-yl]piperazine]
0.084	0.118	COc1ccc(C(=O)N2CCN(c3ccccc3)C(=O)C2)cc1C#Cc1ccccn1 [Compound 329, 4-{[4-methoxy-3-(pyridin-2-ylethynyl)phenyl]carbonyl}-1-phenylpiperazin-2-one]
0.017	0.085	COc1ccc(C(=O)N2CCN(c3nccs3)CC2)cc1C#Cc1ccccn1 [Compound 247, 1-[4-methoxy-3-(pyridin-2-ylethynyl)benzoyl]-4-(1,3-thiazol-2-yl)piperazine]
0.019	0.031	COc1ccc(C(=O)N2CCN(c3cc(C)ccn3)CC2)cc1C#Cc1ccccn1 [Compound 191, 1-[4-methoxy-3-(pyridin-2-ylethynyl)benzoyl]-4-(4-methylpyridin-2-yl)piperazine]
0.231	0.344	CCS(=O)(=O)N1CCN(C(=O)c2ccc(OC)c(C#Cc3ccccn3)c2)CC1 [Compound 245, 1-(ethylsulfonyl)-4-[4-methoxy-3-(pyridin-2-ylethynyl)benzoyl]piperazine]
0.07	> 1000	COc1ccc(C(=O)N2CCN(S(=O)(=O)c3ccc4ccccc4c3)CC2)cc1C#Cc1ccccn1 [Compound 287, 1-[4-methoxy-3-(pyridin-2-ylethynyl)benzoyl]-4-(2-naphthylsulfonyl)piperazine]
0.02	0.031	CCOc1ccc(C(=O)N2CCN(c3nccc(OC)n3)CC2)cc1C#Cc1ccccn1 [Compound 320, 2-{4-[4-ethoxy-3-(pyridin-2-ylethynyl)benzoyl]piperazin-1-yl}-4-methoxypyrimidine]
0.057	0.167	COc1ccc(C(=O)N2CCN(Cc3cccc(F)c3)CC2)cc1C#Cc1ccccn1 [Compound 267, 1-(3-fluorobenzyl)-4-[4-methoxy-3-(pyridin-2-ylethynyl)benzoyl]piperazine]
